From ChEMBL document CHEMBL6121044, “Discovery of Novel Spirocyclic MAT2A Inhibitors Demonstrating High In Vivo Efficacy in MTAP-Null Xenograft Models” (J Med Chem, 2025)
≈ marks a conversion by molar mass, not a printed value. Each block holds one compound with its values, some of them ahead of it.

Assays:
HCT-116 [1] = test: Antiproliferative activity against MTAP-knock out human HCT-116 cells assessed as proliferation inhibition rate measured after 5 days by CTG assay; format: functional, cell-based; settings: HCT-116, 120 h
[2] = Half life in beagle dog at 2 mg/kg, iv measured upto 24 hrs upto 24 hrs by LC-MS/MS analysis; format: ADME, organism-based, Canis lupus familiaris; settings: in vivo
[3] = Oral bioavailability in male ICR mouse at 10 mg/kg measured upto 24 hrs by LC-MS/MS analysis; format: ADME, organism-based; settings: in vivo
[4] = Microsomal metabolic stability in human liver microsomes assessed as clearance; format: ADME, Microsome; settings: read-out: CLH
[5] = Solubility of the compound in pH 7.4 phosphate buffer; format: physicochemical
[6] = Cmax in beagle dog at 10 mg/kg, po measured upto 24 hrs upto 24 hrs by LC-MS/MS analysis; format: ADME, organism-based, Canis lupus familiaris; settings: in vivo
[7] = Hepatic metabolic stability in rat hepatocyte assessed as half life; format: ADME, cell-based; settings: hepatocytes
[8] = Half life in male Sprague-Dawley rat at 10 mg/kg, po measured upto 24 hrs upto 24 hrs by LC-MS/MS analysis; format: ADME, organism-based; settings: in vivo
[9] = molecular target: T1, S-adenosylmethionine synthase isoform type-2 (Homo sapiens, UniProt P31153); test: Inhibition of MAT2A in MTAP-knock out human HCT-116 cells assessed as inhibition of S-adenosylmethionine level; format: cell-based
T1 sequence (P31153 whole entry, canonical isoform): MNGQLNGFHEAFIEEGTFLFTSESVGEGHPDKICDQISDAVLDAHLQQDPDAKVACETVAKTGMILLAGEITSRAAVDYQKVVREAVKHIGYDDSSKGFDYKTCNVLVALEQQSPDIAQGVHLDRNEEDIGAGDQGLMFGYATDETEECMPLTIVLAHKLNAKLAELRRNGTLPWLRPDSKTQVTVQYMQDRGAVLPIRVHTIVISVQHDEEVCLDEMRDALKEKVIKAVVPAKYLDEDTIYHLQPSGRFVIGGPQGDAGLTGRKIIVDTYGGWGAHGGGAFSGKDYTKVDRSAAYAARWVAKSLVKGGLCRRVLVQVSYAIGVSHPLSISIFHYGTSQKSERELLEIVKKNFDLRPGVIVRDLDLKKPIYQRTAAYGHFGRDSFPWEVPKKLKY

Cytochrome P450 2C9 = Cytochrome P450 2C9 (Homo sapiens, UniProt P11712); test: Inhibition of CYP2C9 (unknown origin); format: ADME
Cytochrome P450 2C9, sequence (P11712 whole entry): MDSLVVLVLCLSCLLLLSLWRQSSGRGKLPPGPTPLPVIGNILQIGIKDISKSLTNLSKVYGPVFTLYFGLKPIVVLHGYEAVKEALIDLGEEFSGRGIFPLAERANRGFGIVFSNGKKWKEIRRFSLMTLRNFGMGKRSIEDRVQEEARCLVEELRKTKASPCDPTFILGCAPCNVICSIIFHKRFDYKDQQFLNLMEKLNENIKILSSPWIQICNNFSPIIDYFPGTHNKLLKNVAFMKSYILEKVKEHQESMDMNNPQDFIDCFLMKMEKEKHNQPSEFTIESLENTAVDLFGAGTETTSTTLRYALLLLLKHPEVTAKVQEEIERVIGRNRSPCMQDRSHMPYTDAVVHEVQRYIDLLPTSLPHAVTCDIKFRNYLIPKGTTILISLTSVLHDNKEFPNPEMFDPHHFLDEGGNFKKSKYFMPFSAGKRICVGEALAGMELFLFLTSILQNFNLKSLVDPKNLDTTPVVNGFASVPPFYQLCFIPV

[10] = Microsomal metabolic stability in rat liver microsomes assessed as half life; format: ADME, Microsome
[11] = Cmax in male ICR mouse at 10 mg/kg, po measured upto 24 hrs by LC-MS/MS analysis; format: ADME, organism-based; settings: in vivo
[12] = AUCinf in male Sprague-Dawley rat at 10 mg/kg, po measured upto 24 hrs upto 24 hrs by LC-MS/MS analysis; format: ADME, organism-based; settings: in vivo
[13] = Half life in male ICR mouse at 2 mg/kg, iv measured upto 24 hrs by LC-MS/MS analysis; format: ADME, organism-based; settings: in vivo
[14] = Genotoxicity in Salmonella typhimurium TA1535; format: toxicity; settings: salmonella enterica subsp. enterica serovar typhimurium
[15] = AUCinf in beagle dog at 2 mg/kg, iv measured upto 24 hrs upto 24 hrs by LC-MS/MS analysis; format: ADME, organism-based, Canis lupus familiaris; settings: in vivo
Cytochrome P450 2D6 = Cytochrome P450 2D6 (Homo sapiens, UniProt P10635); test: Inhibition of CYP2D6 (unknown origin); format: ADME
Cytochrome P450 2D6, sequence (P10635 whole entry): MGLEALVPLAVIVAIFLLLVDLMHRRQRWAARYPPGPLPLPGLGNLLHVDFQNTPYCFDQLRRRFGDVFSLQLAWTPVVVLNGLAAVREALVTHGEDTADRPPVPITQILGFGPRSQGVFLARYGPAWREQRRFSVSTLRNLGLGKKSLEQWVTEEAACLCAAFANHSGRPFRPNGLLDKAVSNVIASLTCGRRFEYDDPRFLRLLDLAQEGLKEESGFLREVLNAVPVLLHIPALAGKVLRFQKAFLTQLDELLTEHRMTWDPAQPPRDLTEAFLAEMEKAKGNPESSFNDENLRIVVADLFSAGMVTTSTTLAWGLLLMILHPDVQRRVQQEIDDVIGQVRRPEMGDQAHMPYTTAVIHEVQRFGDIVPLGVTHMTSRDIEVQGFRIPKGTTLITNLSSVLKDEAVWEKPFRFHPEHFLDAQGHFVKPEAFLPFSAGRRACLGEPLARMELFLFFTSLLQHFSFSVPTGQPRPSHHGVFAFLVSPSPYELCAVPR

[16] = Solubility of the compound in FaSSGF; format: physicochemical
[17] = Solubility of the compound in FaSSIF; format: physicochemical
[18] = Half life in male ICR mouse at 10 mg/kg, po and 2 mg/kg, iv measured upto 24 hrs; format: ADME, organism-based; settings: in vivo
[19] = Apparent permeability across apical to basolateral in human Caco-2 cells; format: ADME, cell-based; settings: read-out: permeability
[20] = AUCinf in male Sprague-Dawley rat at 2 mg/kg, iv measured upto 24 hrs upto 24 hrs by LC-MS/MS analysis; format: ADME, organism-based; settings: in vivo
[21] = Volume of distribution at steady state in beagle dog at 2 mg/kg, iv measured upto 24 hrs upto 24 hrs by LC-MS/MS analysis; format: ADME, organism-based, Canis lupus familiaris; settings: in vivo, read-out: Vdss
[22] = Plasma protein binding in cynomolgus monkey assessed as unbound fraction; format: ADME, cell-free, Macaca fascicularis
Cytochrome P450 2B6 = molecular target: T2, Cytochrome P450 2B6 (Homo sapiens, UniProt P20813); test: Inhibition of CYP2B6 (unknown origin); format: ADME
T2 sequence (P20813 whole entry): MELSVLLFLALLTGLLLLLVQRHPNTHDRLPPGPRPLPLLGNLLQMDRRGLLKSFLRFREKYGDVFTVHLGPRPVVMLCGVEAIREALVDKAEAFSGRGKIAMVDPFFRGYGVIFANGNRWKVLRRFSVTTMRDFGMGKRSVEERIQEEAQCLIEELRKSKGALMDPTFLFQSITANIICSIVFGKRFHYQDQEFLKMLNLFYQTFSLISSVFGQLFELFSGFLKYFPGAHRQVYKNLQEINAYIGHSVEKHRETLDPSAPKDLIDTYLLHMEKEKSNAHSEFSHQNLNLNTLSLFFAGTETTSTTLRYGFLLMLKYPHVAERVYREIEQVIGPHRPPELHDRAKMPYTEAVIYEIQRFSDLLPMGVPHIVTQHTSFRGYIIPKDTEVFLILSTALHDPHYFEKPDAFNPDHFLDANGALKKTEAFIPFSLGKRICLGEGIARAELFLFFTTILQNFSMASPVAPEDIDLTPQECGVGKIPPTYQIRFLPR

HCT-116 [23] = test: Antiproliferative activity against wild type human HCT-116 cells measured after 5 days by CTG assay; format: functional, cell-based; settings: HCT-116, 120 h
[24] = Oral bioavailability in beagle dog at 10 mg/kg measured upto 24 hrs upto 24 hrs by LC-MS/MS analysis; format: ADME, organism-based, Canis lupus familiaris; settings: in vivo
[25] = Half life in male Sprague-Dawley rat at 2 mg/kg, iv measured upto 24 hrs upto 24 hrs by LC-MS/MS analysis; format: ADME, organism-based; settings: in vivo
Cytochrome P450 2C19 = Cytochrome P450 2C19 (Homo sapiens, UniProt P33261); test: Inhibition of CYP2C19 (unknown origin); format: ADME
Cytochrome P450 2C19, sequence (P33261 whole entry): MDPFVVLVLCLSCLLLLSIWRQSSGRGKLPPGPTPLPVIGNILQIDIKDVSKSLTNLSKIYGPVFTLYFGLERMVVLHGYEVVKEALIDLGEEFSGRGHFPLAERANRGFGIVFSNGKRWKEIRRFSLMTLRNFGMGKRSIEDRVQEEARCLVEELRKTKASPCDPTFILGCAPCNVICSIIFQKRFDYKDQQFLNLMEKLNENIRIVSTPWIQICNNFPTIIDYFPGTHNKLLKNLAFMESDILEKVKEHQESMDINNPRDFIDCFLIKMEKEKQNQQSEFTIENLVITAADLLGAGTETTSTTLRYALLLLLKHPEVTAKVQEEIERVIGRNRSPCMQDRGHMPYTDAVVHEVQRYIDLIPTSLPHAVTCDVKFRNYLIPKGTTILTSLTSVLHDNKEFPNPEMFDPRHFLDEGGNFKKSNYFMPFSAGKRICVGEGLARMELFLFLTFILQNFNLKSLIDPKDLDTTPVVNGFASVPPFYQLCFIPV

[26] = Volume of distribution at steady state in male ICR mouse at 10 mg/kg, po and 2 mg/kg, iv measured upto 24 hrs; format: ADME, organism-based; settings: in vivo
[27] = Half life in beagle dog at 10 mg/kg, po measured upto 24 hrs upto 24 hrs by LC-MS/MS analysis; format: ADME, organism-based, Canis lupus familiaris; settings: in vivo
[28] = Clearance rate in male ICR mouse at 2 mg/kg, iv measured upto 24 hrs by LC-MS/MS analysis; format: ADME, organism-based; settings: in vivo
[29] = molecular target: T1, S-adenosylmethionine synthase isoform type-2; test: Inhibition of MAT2A in wild type human HCT-116 cells assessed as inhibition of PRMT5-mediated symmetric […]-arginine (SDMA) level; format: cell-based
[30] = Lipophilicity, log D of compound at pH 7.4 byHPLC method; format: physicochemical; settings: buffer
[31] = AUCinf in male ICR mouse at 2 mg/kg, iv measured upto 24 hrs by LC-MS/MS analysis; format: ADME, organism-based; settings: in vivo
[32] = molecular target: T1, S-adenosylmethionine synthase isoform type-2; test: Inhibition of MAT2A in wild type human HCT-116 cells assessed as inhibition of S-adenosylmethionine; format: cell-based
[33] = Clearance rate in beagle dog at 2 mg/kg, iv measured upto 24 hrs upto 24 hrs by LC-MS/MS analysis; format: ADME, organism-based, Canis lupus familiaris; settings: in vivo
[34] = Clearance in male ICR mouse at 10 mg/kg, po and 2 mg/kg, iv measured upto 24 hrs; format: ADME, organism-based; settings: in vivo
[35] = Lipophilicity, log P of the compound; format: physicochemical; settings: octanol/water
[36] = Hepatic metabolic stability in mouse hepatocyte assessed as half life; format: ADME, cell-based; settings: hepatocytes
[37] = Half life in male ICR mouse at 10 mg/kg, po measured upto 24 hrs by LC-MS/MS analysis; format: ADME, organism-based; settings: in vivo
HCT-116 [38] = test: Antiproliferative activity against MTAP-knock out human HCT-116 cells assessed as maximal inhibition rate at 10 uM measured after 5 days by CTG assay relative to control; format: functional; settings: time 5 day
[39] = Genotoxicity in Salmonella typhimurium TA98; format: toxicity; settings: salmonella enterica subsp. enterica serovar typhimurium
[40] = In vivo antitumor activity against MTAP-deleted human KP-4 cells xenografted mouse model assessed as tumor growth inhibition at 30 mg/kg, po qd measured after 18 days relative to control; format: functional; settings: KP-4, 432 h, time 18 day, read-out: TGI

- IC50 (HCT-116 [1]): 58 nM
- half-life [2]: 6.91 h
- bioavailability [3]: 97%
- CLint scaled [4]: < 9.3 mL/min/kg
- solubility [5]: 173 µM (≈ 60.3 µg/mL)
- Cmax [6]: 1660 ng/mL
- half-life [7]: > 3.61 h
- half-life [8]: 2.4 h
- IC50 [9]: 4 nM
- IC50 (Cytochrome P450 2C9): > 10000 nM
- half-life [10]: > 3.1 h
- Cmax [11]: 5420 ng/mL
- AUC(0-inf) [12]: 24300 ng·h/mL
- half-life [13]: 2.52 h
- AUC(0-inf) [15]: 2610 ng·h/mL
- IC50 (Cytochrome P450 2D6): > 10000 nM
- solubility [16]: 30.9 µM (≈ 10.8 µg/mL)
- solubility [17]: 207 µM (≈ 72.1 µg/mL)
- half-life [18]: 2.17 h
- Papp A→B [19]: 13.6 ×10⁻⁶ cm/s
- AUC(0-inf) ([20]; male, Sprague-Dawley): 4990 ng·h/mL
- Vd [21]: 1.14 L/kg
- fraction unbound [22]: 0.562
- IC50 (Cytochrome P450 2B6): > 10000 nM
- IC50 (HCT-116 [23]): 680 nM
- bioavailability ([24]; beagle): 130%
- t1/2 [25]: 2.35 h
- IC50 (Cytochrome P450 2C19): > 10000 nM
- Vdss [26]: 1.7 L/kg
- half-life [27]: 6.09 h
- clearance [28]: 7.98 mL/min/kg
- IC50 [29]: > 3000 nM
- logD [30]: 1.81
- AUC(0-inf) [31]: 4190 ng·h/mL
- IC50 [32]: 3 nM
- clearance [33]: 6.95 mL/min/kg
- clearance [34]: 7.98 mL/min/kg
- logP [35]: 1.85
- half-life [36]: > 3.61 h
- half-life [37]: 2.19 h
SMILES: [2H]C([2H])([2H])NC1=NC(=O)[C@]2(CCc3ncccc32)c2cc(C(F)(F)F)ccc21
- Activity [14]: Non-toxic
- Imax (HCT-116 [38]): 89.34%
- Activity [39]: Non-toxic

- IC50 (HCT-116 [1]): 47 nM
- half-life [2]: 6.56 h
- bioavailability [3]: 132%
- CLint scaled [4]: < 9.3 mL/min/kg
- solubility [5]: 174 µM (≈ 59.9 µg/mL)
- Cmax [6]: 2140 ng/mL
- half-life [7]: > 3.61 h
- half-life [8]: 2.35 h
- IC50 [9]: 4 nM
- IC50 (Cytochrome P450 2C9): > 10000 nM
- half-life [10]: > 3.1 h
- Cmax [11]: 5820 ng/mL
- AUC(0-inf) [12]: 14500 ng·h/mL
- half-life [13]: 1.94 h
- AUC(0-inf) [15]: 1860 ng·h/mL
- IC50 (Cytochrome P450 2D6): > 10000 nM
- solubility [16]: 79.9 µM (≈ 27.5 µg/mL)
- solubility [17]: 208 µM (≈ 71.6 µg/mL)
- half-life [18]: 2.24 h
- Papp A→B [19]: 5.12 ×10⁻⁶ cm/s
- AUC ([20]; iv, 2 mg/kg, 24 h): 2212 ng·h/mL
- Vd [21]: 1.14 L/kg
- fraction unbound [22]: 0.519
- IC50 (Cytochrome P450 2B6): > 10000 nM
- IC50 (HCT-116 [23]): > 10000 nM
- F ([24]; po, 10 mg/kg, 24 h): 165%
- t1/2 [25]: 2.03 h
- IC50 (Cytochrome P450 2C19): > 10000 nM
- Vdss [26]: 1.53 L/kg
- half-life [27]: 4.47 h
- clearance [28]: 9.12 mL/min/kg
- IC50 [29]: > 3000 nM
- logD [30]: 1.59
- AUC(0-inf) [31]: 3660 ng·h/mL
- IC50 [32]: 2 nM
- clearance [33]: 15.3 mL/min/kg
- clearance [34]: 9.12 mL/min/kg
- logP [35]: 1.65
- half-life [36]: > 3.61 h
- half-life [37]: 2.37 h
SMILES: [2H]C([2H])([2H])NC1=NC(=O)[C@]2(CCc3ncccc32)c2cc(C(C)(F)F)ccc21
- Activity [14]: Non-toxic
- inhibition in vivo at 30 mg/kg [40]: 62%
- Imax (HCT-116 [38]): 100%
- Activity [39]: Non-toxic
